Test results as given in ChEMBL document CHEMBL1152896, “Design and in silico screening of combinatorial library of antimalarial analogs of triclosan inhibiting Plasmodium falciparum enoyl-acyl carrier protein reductase” (Eur J Med Chem, 2009).

Target: T1, Enoyl-acyl-carrier protein reductase (Plasmodium falciparum, UniProt Q965D5)
T1 sequence (Q965D5 whole entry): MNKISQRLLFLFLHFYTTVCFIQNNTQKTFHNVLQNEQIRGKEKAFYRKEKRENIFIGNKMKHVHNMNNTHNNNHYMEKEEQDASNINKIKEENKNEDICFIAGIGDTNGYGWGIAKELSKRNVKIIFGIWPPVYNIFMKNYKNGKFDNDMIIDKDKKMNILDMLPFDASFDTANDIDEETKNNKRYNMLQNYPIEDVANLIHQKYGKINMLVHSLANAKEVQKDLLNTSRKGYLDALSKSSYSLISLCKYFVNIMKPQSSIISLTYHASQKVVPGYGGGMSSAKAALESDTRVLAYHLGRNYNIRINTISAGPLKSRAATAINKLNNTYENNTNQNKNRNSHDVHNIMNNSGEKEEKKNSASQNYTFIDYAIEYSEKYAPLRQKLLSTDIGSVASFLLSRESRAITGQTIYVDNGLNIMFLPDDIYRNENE
Assay: Inhibition of Plasmodium falciparum enoyl-acyl carrier protein reductase expressed in Escherichia coli BL21(DE3) by spectrophotometry

**Q.** For `Oc1cc(Cl)ccc1Oc1ccc(Cl)cc1Cl` [TRICLOSAN], which Ki is on record?
**A.** 50 nM
